Measured values reported in US20110224231A1, “Novel Lactams as Beta Secretase Inhibitors” (Pfizer Inc., priority 2008, published 2011).
Counter-ions that a name gives are not always drawn. Like-named read-outs stand apart in the source and are kept apart here.

Biological target: T1, soluble human BACE (Homo sapiens, UniProt P56817)
T1 construct: cells secreting human recombinant soluble BACE; made in house; conditioned medium
Assay: BACE activity Cell Free Assay (ELISA of cleaved synthetic APP substrate)
Assay type: biochemical

[1] = Table 4, cell free, soluble human BACE, pH 4.5, 3 μM substrate, read-out: BACE Activity (Cell Free Assay IC50)
[2] = Table 6, cell free, soluble human BACE, pH 4.5, 3 μM substrate, read-out: BACE Activity (Cell Free Assay IC50)

T1 sequence (P56817 46-457 limits assumed): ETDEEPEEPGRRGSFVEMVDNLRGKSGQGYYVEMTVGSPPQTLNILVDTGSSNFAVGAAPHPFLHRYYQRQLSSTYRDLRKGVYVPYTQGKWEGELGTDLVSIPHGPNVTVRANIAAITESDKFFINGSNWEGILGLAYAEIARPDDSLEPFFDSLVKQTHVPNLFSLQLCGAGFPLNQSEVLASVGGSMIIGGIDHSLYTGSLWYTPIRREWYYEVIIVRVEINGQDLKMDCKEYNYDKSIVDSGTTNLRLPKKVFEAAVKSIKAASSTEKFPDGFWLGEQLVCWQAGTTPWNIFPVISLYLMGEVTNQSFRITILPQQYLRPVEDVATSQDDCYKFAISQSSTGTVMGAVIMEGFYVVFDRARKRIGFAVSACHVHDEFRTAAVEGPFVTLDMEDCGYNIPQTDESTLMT

SMILES	IC50 [µM]	further results
CC(C)Oc1cccc(CN2CC[C@]3(C=CC(=O)N3c3cc(C(F)(F)F)ccn3)C[C@@H]2C)c1 [#119]	100 to 300	
CC(C)Oc1cccc(CN2CC[C@]3(C=CC(=O)N3c3cncc(C#N)c3)C[C@@H]2C)c1 [#120]	10 to 100	
Cc1nc(N2C(=O)C=C[C@]23CCN(Cc2cccc(OC(C)C)c2)[C@@H](C)C3)cs1 [#121]	1 to 10	
CC(C)Oc1cccc(CN2CC[C@]3(C=CC(=O)N3c3ccn(C)n3)C[C@@H]2C)c1 [#122]	10 to 100	
CCn1cc(N2C(=O)C=C[C@]23CCN(Cc2cccc(OC(C)C)c2)[C@@H](C)C3)cn1 [#123]	100 to 300	
CC(C)Oc1cccc(CN2CC[C@]3(C=CC(=O)N3c3ccc(F)cn3)C[C@@H]2C)c1 [#124]		IC50 [1]: 10 to 100 µM
CC(C)Oc1cccc(CN2CC[C@]3(C=CC(=O)N3c3cccc(C(F)(F)F)n3)C[C@@H]2C)c1 [#125]		IC50 [1]: 10 to 100 µM
Cc1cncc(N2C(=O)C=C[C@]23CCN(Cc2cccc(OC(C)C)c2)[C@@H](C)C3)n1 [#126]		IC50 [1]: 10 to 100 µM
CC(C)n1ncc2ccc(CN3CC[C@]4(C=CC(=O)N4c4cnccn4)C[C@@H]3C)cc21 [#130, (5R,7S)-8-[(1-isopropyl-1H-indazol-6-yl)methyl]-7-methyl-1-pyrazin-2-yl-1,8-diazaspiro[4.5]dec-3-en-2-one]	10 to 100	
C[C@H]1C[C@@]2(C=CC(=O)N2c2cnccn2)CCN1Cc1scnc1CC1CCC1 [#131, (5R,7S)-8-([4-(cyclobutylmethyl)-1,3-thiazol-5-yl]methyl)-7-methyl-1-pyrazin-2-yl-1,8-diazaspiro[4.5]dec-3-en-2-one]	1 to 10	
CC(C)Oc1cc(CN2CC[C@]3(C=CC(=O)N3c3cnccn3)C[C@@H]2C)ccc1O [#132, (5R,7S)-8-(4-hydroxy-3-isopropoxybenzyl)-7-methyl-1-pyrazin-2-yl-1,8-diazaspiro[4.5]dec-3-en-2-one]	0.001 to 1	
CCCn1nccc1CN1CC[C@]2(C=CC(=O)N2c2cnccn2)C[C@@H]1C [#133, (5R,7S)-7-methyl-8-[(1-propyl-1H-pyrazol-5-yl)methyl]-1-pyrazin-2-yl-1,8-diazaspiro[4.5]dec-3-en-2-one]	100 to 300	
C[C@H]1C[C@@]2(C=CC(=O)N2c2cnccn2)CCN1Cc1ccnn1CC(F)(F)F [#134, (5R,7S)-7-methyl-1-pyrazin-2-yl-8-[(1-(2,2,2-trifluoroethyl)-1H-pyrazol-5-yl]methyl]-1,8-diazaspiro[4.5]dec-3-en-2-one]	100 to 300	
Cc1cccc(N2C(=O)C=C[C@]23CCN(Cc2ccc(O)c(OC(C)C)c2)[C@@H](C)C3)n1 [#135, (5R,7S)-8-(4-hydroxy-3-isopropoxybenzyl)-7-methyl-1-(6-methylpyridin-2-yl)-1,8-diazaspiro[4.5]dec-3-en-2-one]	0.001 to 1	
Cc1cccc(N2C(=O)C=C[C@]23CCN(Cc2ccc(O)c(-c4sccc4C)c2)[C@@H](C)C3)n1 [#136, (5R,7S)-8-[4-hydroxy-3-(3-methyl-2-thienyl)benzyl]-7-methyl-1-(6-methylpyridin-2-yl)-1,8-diazaspiro[4.5]dec-3-en-2-one]	0.001 to 1	
Cc1cccc(N2C(=O)C=C[C@]23CCN(Cc2scnc2CC2CCC2)[C@@H](C)C3)n1 [#137, (5R,7S)-8-{[4-(cyclobutylmethyl)-1,3-thiazol-5-yl]methyl}-7-methyl-1-(6-methylpyridin-2-yl)-1,8-diazaspiro[4.5]dec-3-en-2-one]	1 to 10	
CCCn1nccc1CN1CC[C@]2(C=CC(=O)N2c2cccc(C)n2)C[C@@H]1C [#138, (5R,7S)-7-methyl-1-(6-methylpyridin-2-yl)-8-[(1-propyl-1H-pyrazol-5-yl)methyl]-1,8-diazaspiro[4.5]dec-3-en-2-one]	10 to 100	
Cc1cccc(N2C(=O)C=C[C@]23CCN(Cc2ccc4cnn(C(C)C)c4c2)[C@@H](C)C3)n1 [#139, (5R,7S)-8-[(1-isopropyl-1H-indazol-6-yl)methyl]-7-methyl-1-(6-methylpyridin-2-yl)-1,8-diazaspiro[4.5]dec-3-en-2-one]	100 to 300	
C[C@H]1C[C@@]2(C=CC(=O)N2c2cnccn2)CCN1Cc1ccc(O)c(Cl)c1 [#140, (5R,7S)-8-(3-chloro-4-hydroxybenzyl)-7-methyl-1-pyrazin-2-yl-1,8-diazaspiro[4.5]dec-3-en-2-one, ammonium salt]	10 to 100	
Cc1cccc(N2C(=O)C=C[C@]23CCN(Cc2ccc(O)c(Cl)c2)[C@@H](C)C3)n1 [#141, (5R,7S)-8-(3-chloro-4-hydroxybenzyl)-7-methyl-1-(6-methylpyridin-2-yl)-1,8-diazaspiro[4.5]dec-3-en-2-one, ammonium salt]	1 to 10	
CC(C)Cc1ocnc1CN1CC[C@]2(C=CC(=O)N2c2cccc(F)c2)C[C@@H]1C [#200]	1 to 10	
C[C@H]1C[C@@]2(C=CC(=O)N2c2cccc(F)c2)CCN1Cc1ccc(O)c(Cl)c1 [#201]	1 to 10	
Cc1ccccc1-c1cc(CN2CC[C@]3(C=CC(=O)N3c3cccc(F)c3)C[C@@H]2C)ccc1O [#202]	0.001 to 1	
CC[C@@H](C)Oc1cccc(CN2CC[C@]3(C=CC(=O)N3c3cccc(F)c3)C[C@@H]2C)c1 [#203]	1 to 10	

SMILES	IC50 [µM]	further results
CC(C)C(=O)c1cc(CN2CC[C@]3(C=CC(=O)N3c3cccc(F)c3)C[C@@H]2C)ccc1O [#204]	1 to 10	
CC(C)C(O)c1cc(CN2CCC3(C=CC(=O)N3c3cccc(F)c3)CC2C)ccc1O (centres unmarked) [#205]	0.001 to 1	
C[C@H]1C[C@@]2(C=CC(=O)N2c2cccc(F)c2)CCN1Cc1ccc(O)c(-c2ccccc2Cl)c1 [#206]	0.001 to 1	
C[C@H]1C[C@@]2(C=CC(=O)N2c2cccc(F)c2)CCN1Cc1ncoc1-c1ccccc1 [#207]	10 to 100	
C[C@H]1C[C@@]2(C=CC(=O)N2c2cccc(F)c2)CCN1Cc1ccc(O)c(-c2ccccc2F)c1 [#208]	0.001 to 1	
Cc1ccc(F)cc1-c1cc(CN2CC[C@]3(C=CC(=O)N3c3cccc(F)c3)C[C@@H]2C)ccc1O [#209]	0.001 to 1	
C[C@H]1C[C@@]2(C=CC(=O)N2c2cccc(F)c2)CCN1Cc1scnc1CC1CC1 [#210]	0.001 to 1	
C[C@H]1C[C@@]2(C=CC(=O)N2c2cccc(F)c2)CCN1Cc1scnc1CC1CCC1 [#211]	0.001 to 1	
Cc1ccsc1-c1cc(CN2CC[C@]3(C=CC(=O)N3c3cccc(F)c3)C[C@@H]2C)ccc1O [#212]	0.001 to 1	
CC(C)Cc1ocnc1CN1CC[C@]2(CCC(=O)N2c2cccc(F)c2)C[C@@H]1C [#213]	10 to 100	
C[C@H]1C[C@@]2(CCC(=O)N2c2cccc(F)c2)CCN1Cc1ccc(O)c(Cl)c1 [#214]	1 to 10	
Cc1ccccc1-c1cc(CN2CC[C@]3(CCC(=O)N3c3cccc(F)c3)C[C@@H]2C)ccc1O [#215]	0.001 to 1	
CC[C@@H](C)Oc1cccc(CN2CC[C@]3(CCC(=O)N3c3cccc(F)c3)C[C@@H]2C)c1 [#216]	1 to 10	
Cc1ccsc1-c1cc(CN2CC[C@]3(CCC(=O)N3c3cccc(F)c3)C[C@@H]2C)ccc1O [#217]	1 to 10	
CC(C)Oc1cc(CN2CC[C@]3(C=CC(=O)N3c3cccc(F)c3)C[C@@H]2C)ccc1O [Example 87, (5R7S)-1-(3-fluorophenyl)-8-(4-hydroxy-3-isopropoxybenzyl)-7-methyl-1,8-diazaspiro[4,5]dec-3-en-2-one hydrochloride]	0.001 to 1	
Cc1ccccc1-c1cccc(CN2CC[C@]3(CCC(=O)N3c3cccc(F)c3)C[C@@H]2C)c1 [Example 88, (5R,7S)˜1˜(3˜fluorophenyl)˜7˜methyl˜8˜[(2′˜methylbiphenyl˜3˜yl)methyl]˜1,8˜diazaspiro[4.5]decan˜2˜one hydrochloride]	1 to 10	
CC(C)Oc1cc(CN2CC[C@]3(CCC(=O)N3c3cccc(F)c3)C[C@@H]2C)ccc1O [Example 89, (5R,7S)˜1˜(3˜fluorophenyl)˜8˜(4˜hydroxy˜3˜isopropoxybenzyl)˜7˜methyl˜1,8˜diazaspiro[4.5]decan˜2˜one hydrochloride]	0.001 to 1	
CC(C)Oc1cccc(CN2CC[C@]3(C=CC(=O)N3CC3CC3)C[C@@H]2C)c1 [Example @93, (5R,7S)-1-(cyclopropylmethyl)-8-(3-isopropoxybenzyl)-7-methyl-1,8-diazaspiro[4.5]dec-3-en-2-one]		IC50 [2]: 100 to 300 µM
CCCN1C(=O)C=C[C@]12CCN(Cc1cccc(OC(C)C)c1)[C@@H](C)C2 [Example @94, (5R,7S)˜8˜(3˜isopropoxybenzyl)˜7˜methyl˜1˜propyl˜1,8-diazaspiro[4.5]dec˜3˜en˜2˜one]		IC50 [2]: 100 to 300 µM
CC(C)Oc1cccc(CN2CC[C@]3(C=CC(=O)N3C3CC3)C[C@@H]2C)c1 [Example @95, (5R,7S)-1-Cyclopropyl-8-(3-isopropoxybenzyl)-7-methyl-1,8-diazaspiro[4.5]dec-3-en-2˜one, trifluoroacetate salt]		IC50 [2]: 100 to 300 µM
CC(C)Oc1cccc(CN2CC[C@]3(CC(C)C(=O)N3c3cccc(F)c3)C[C@@H]2C)c1 (stereo partly drawn) [Example @96, (5R,7S)˜1˜(3˜Fluorophenyl)˜8˜(3˜isopropoxybenzyl)˜3,7˜dimethyl˜1,8˜diazaspiro[4.5]decan˜2˜one, hydrochloride salt]	10 to 100	
CC(C)Oc1cc(CN2CC[C@]3(C=C(c4ccccc4)C(=O)N3c3cccc(F)c3)C[C@@H]2C)ccc1O [Example @97, (5R,7S)-1-(3-Fluorophenyl)-8-(4-hydroxy-3-isopropoxybenzyl)-7-methyl-3-phenyl-1,8-diazaspiro[4.5]dec-3-en-2-one, hydrochloride salt]	1 to 10	
CC1=C[C@]2(CCN(Cc3ccc(O)c(OC(C)C)c3)[C@@H](C)C2)N(c2cccc(F)c2)C1=O [Example @98, (5R,7S)-1-(3-Fluorophenyl)-8-(4-hydroxy-3-isopropoxybenzyl)-3,7-dimethyl-1,8-diazaspiro[4.5]dec-3-en-2-one, hydrochloride salt]	0.001 to 1	
